Data as given in US20260226086A1, “COMPOUNDS AND COMPOSITIONS AS STAT3 DEGRADERS AND USES THEREOF” (REGENTS OF THE UNIVERSITY OF MICHIGAN, priority 2023, published 2026).
Like-named read-outs stand apart in the source and are kept apart here.

Experiments:
Assay type in all cases: cell-based
[1] = test system: SUP-M2 cells; assay: CellTiter-Glo 2.0 cell viability assay, SUP-M2; settings: 4 days
In short: (§1)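 IC50 derived by four-parameter nonlinear regression on triplicate luminescence data (CellTiter-Glo 2.0), normalised to untreated controls. Cells plated at 1000/well received serial compound dilutions for 4 days at 37 °C with 5% CO2.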

[2] = test system: SU-DHL-1 cells; assay: CellTiter-Glo 2.0 cell viability assay, SU-DHL-1; settings: 4 days
In short: as §1

[3] = target: T1, STAT3 (Homo sapiens, UniProt P40763); assay: HiBiT assay, STAT3 degradation in STAT3-HiBiT KI HeLa cells; settings: for DC50: read-out: STAT3 Degradation (HeLa 24 h HiBit) DC50
T1 construct: This cell line is a clone created by using CRISPR-Cas9 to fuse HiBiT to the 3′ end of STAT3 in HeLa cells; host or cells: STAT3-HiBiT KI HeLa cell line (CRISPR-Cas9 knock-in clone)
In short: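 Luminescence of endogenous HiBiT-tagged STAT3 (C-terminal knock-in, HeLa) was measured with lytic Nano-Glo detection after 24 h exposure to serially diluted compounds at 37 °C. Cells plated at 20000/well; untreated cells served as control, and triplicate means were fit by four-parameter regression to give IC50.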

T1 sequence (P40763 whole entry): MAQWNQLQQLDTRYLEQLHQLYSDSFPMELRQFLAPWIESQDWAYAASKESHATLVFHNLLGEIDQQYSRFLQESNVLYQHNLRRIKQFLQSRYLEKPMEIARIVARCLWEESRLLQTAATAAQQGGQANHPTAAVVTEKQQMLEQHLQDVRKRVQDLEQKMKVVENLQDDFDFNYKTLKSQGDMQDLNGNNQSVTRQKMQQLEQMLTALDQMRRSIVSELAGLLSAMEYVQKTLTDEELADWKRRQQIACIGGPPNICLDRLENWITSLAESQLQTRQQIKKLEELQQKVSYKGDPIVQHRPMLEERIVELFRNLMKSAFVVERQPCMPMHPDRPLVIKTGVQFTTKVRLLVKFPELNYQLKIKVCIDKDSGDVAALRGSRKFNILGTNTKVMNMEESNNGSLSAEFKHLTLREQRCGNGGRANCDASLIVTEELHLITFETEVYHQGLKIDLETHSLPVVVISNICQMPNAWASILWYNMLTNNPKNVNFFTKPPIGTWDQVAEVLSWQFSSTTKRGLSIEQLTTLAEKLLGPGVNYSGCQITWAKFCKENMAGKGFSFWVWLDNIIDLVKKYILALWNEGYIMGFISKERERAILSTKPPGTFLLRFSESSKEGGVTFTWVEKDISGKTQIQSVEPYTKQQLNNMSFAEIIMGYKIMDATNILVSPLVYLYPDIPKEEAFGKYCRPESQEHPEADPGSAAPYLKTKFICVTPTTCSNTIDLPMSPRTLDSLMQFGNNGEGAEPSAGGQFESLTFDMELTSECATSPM

Row | Compound | IC50 [1] | IC50 [2] | DC50 ([3]; 24 h) | IC50 ([2]; Homo sapiens, 96 h) | Dmax at 1 µM ([3]; 24 h) | IC50 ([1]; SUP-M2, 96 h) | DC50 [3]
1 | Cc1ncsc1-c1ccc([C@H](C)NC(=O)[C@@H]2C[C@@H](O)CN2C(=O)[C@@H](n2cc(CCCCC(=O)N3CC[C@H]4CC[C@@H](C(=O)N[C@@H](CCC(N)=O)C(=O)NC(c5ccccc5)c5ccccc5)N4C(=O)[C@@H](NC(=O)c4cc5cc(C(=O)P(=O)(O)O)ccc5[nH]4)C3)nn2)C(C)(C)C)cc1 [Compound 57, (2-(((5S,8S,10aR)-8-(((S)-5-amino-1-(benzhydrylamino)-1,5-dioxopentan-2-yl)carbamoyl)-3-(5-(1-((S)-1-((2S,4R)-4-hydroxy-2-(((S)-1-(4-(4-methylthiazol-5-yl)phenyl)ethyl)carbamoyl)pyrrolidin-1-yl)-3,3-dimethyl-1-oxobutan-2-yl)-1H-1,2,3-triazol-4-yl)pentanoyl)-6-oxodecahydropyrrolo[1,2-a][1,5]diazocin-5-yl)carbamoyl)-1H-indole-5-carbonyl)phosphonic acid] | 100 to 1000 nM | 100 to 1000 nM | 100 to 1000 nM | – | – | – | –
2 | Cc1ncsc1-c1ccc([C@H](C)NC(=O)[C@@H]2C[C@@H](O)CN2C(=O)[C@@H](n2cc(CCCCC(=O)N3CC[C@H]4CC[C@@H](C(=O)N[C@@H](CCC(N)=O)C(=O)NC(c5ccccc5)c5ccccc5)N4C(=O)[C@@H](NC(=O)c4cc5cc(C(=O)P(=O)(O)O)ccc5[nH]4)C3)nn2)C(C)(C)C)cc1 [Compound 13, (2-(((5S,8S,10aR)-8-(((S)-5-amino-1-(benzhydrylamino)-1,5-dioxopentan-2-yl)carbamoyl)-3-(5-(1-((S)-1-((2S,4R)-4-hydroxy-2-(((S)-1-(4-(4-methylthiazol-5-yl)phenyl)ethyl)carbamoyl)pyrrolidin-1-yl)-3,3-dimethyl-1-oxobutan-2-yl)-1H-1,2,3-triazol-4-yl)pentanoyl)-6-oxodecahydropyrrolo[1,2-a][1,5]diazocin-5-yl)carbamoyl)-1H-indole-5-carbonyl)phosphonic acid] | 10 to 100 nM | – | 10 to 100 nM | 100 to 1000 nM | > 80% | – | –
3 | CCS(=O)(=O)c1ccc(CNC(=O)[C@H](CCC(N)=O)NC(=O)[C@@H]2CC[C@@H]3CCN(C(=O)CCCCc4cn([C@@H](C(=O)N5C[C@H](O)C[C@H]5C(=O)N[C@H](C)c5ccc(-c6scnc6C)cc5)C5CCCCC5)nn4)C[C@H](NC(=O)c4cc5cc(C(=O)P(=O)(O)O)ccc5[nH]4)C(=O)N32)cc1 [Compound 20, (2-(((5S,8S,10aR)-8-(((S)-5-amino-1-((4-(ethylsulfonyl)benzyl)amino)-1,5-dioxopentan-2-yl)carbamoyl)-3-(5-(1-((R)-1-cyclohexyl-2-((2S,4R)-4-hydroxy-2-(((R)-1-(4-(4-methylthiazol-5-yl)phenyl)ethyl)carbamoyl)pyrrolidin-1-yl)-2-oxoethyl)-1H-1,2,3-triazol-4-yl)pentanoyl)-6-oxodecahydropyrrolo[1,2-a][1,5]diazocin-5-yl)carbamoyl)-1H-indole-5-carbonyl)phosphonic acid] | – | – | < 10 nM | < 10 nM | > 80% | < 10 nM | –
4 | CCS(=O)(=O)c1ccc(CNC(=O)[C@H](CCC(N)=O)NC(=O)[C@@H]2CC[C@@H]3CCN(C(=O)CCCCCc4cn([C@H](C(=O)N5C[C@H](O)C[C@H]5C(=O)N[C@@H](C)c5ccc(-c6scnc6C)cc5)C(C)(C)C)nn4)C[C@H](NC(=O)c4cc5cc(C(=O)P(=O)(O)O)ccc5[nH]4)C(=O)N32)cc1 [Compound 14, (2-(((5S,8S,10aR)-8-(((S)-5-amino-1-((4-(ethylsulfonyl)benzyl)amino)-1,5-dioxopentan-2-yl)carbamoyl)-3-(6-(1-((S)-1-((2S,4R)-4-hydroxy-2-(((S)-1-(4-(4-methylthiazol-5-yl)phenyl)ethyl)carbamoyl)pyrrolidin-1-yl)-3,3-dimethyl-1-oxobutan-2-yl)-1H-1,2,3-triazol-4-yl)hexanoyl)-6-oxodecahydropyrrolo[1,2-a][1,5]diazocin-5-yl)carbamoyl)-1H-indole-5-carbonyl)phosphonic acid] | – | – | < 10 nM | < 10 nM | > 80% | < 10 nM | –
5 | CC(=O)N1CC[C@H]2CC[C@@H](C(=O)N[C@@H](CCC(N)=O)COc3cccc(CCCc4cn([C@H](C(=O)N5C[C@H](O)C[C@H]5C(=O)N[C@@H](CO)c5ccc(-c6scnc6C)cc5)C(C)(C)C)nn4)c3Cl)N2C(=O)[C@@H](NC(=O)c2cc3cc(C(=O)P(=O)(O)O)ccc3[nH]2)C1 [Compound 39, (2-(((5S,8S,10aR)-3-acetyl-8-(((S)-5-amino-1-(2-chloro-3-(3-(1-((S)-1-((2S,4R)-4-hydroxy-2-(((R)-2-hydroxy-1-(4-(4-methylthiazol-5-yl)phenyl)ethyl)carbamoyl)pyrrolidin-1-yl)-3,3-dimethyl-1-oxobutan-2-yl)-1H-1,2,3-triazol-4-yl)propyl)phenoxy)-5-oxopentan-2-yl)carbamoyl)-6-oxodecahydropyrrolo[1,2-a][1,5]diazocin-5-yl)carbamoyl)-1H-indole-5-carbonyl)phosphonic acid] | – | – | < 10 nM | < 10 nM | > 80% | < 10 nM | –
6 | Cc1ncsc1-c1ccc([C@H](C)NC(=O)[C@@H]2C[C@@H](O)CN2C(=O)[C@@H](NC(=O)CC(=O)N2CC[C@H]3CC[C@@H](C(=O)N[C@@H](CCC(N)=O)C(=O)NC(c4ccccc4)c4ccccc4)N3C(=O)[C@@H](NC(=O)c3cc4cc(C(=O)P(=O)(O)O)ccc4[nH]3)C2)C(C)(C)C)cc1 [Compound 46, (2-(((5S,8S,10aR)-8-(((S)-5-amino-1-(benzhydrylamino)-1,5-dioxopentan-2-yl)carbamoyl)-3-(3-(((S)-1-((2S,4R)-4-hydroxy-2-(((S)-1-(4-(4-methylthiazol-5-yl)phenyl)ethyl)carbamoyl)pyrrolidin-1-yl)-3,3-dimethyl-1-oxobutan-2-yl)amino)-3-oxopropanoyl)-6-oxodecahydropyrrolo[1,2-a][1,5]diazocin-5-yl)carbamoyl)-1H-indole-5-carbonyl)phosphonic acid] | – | – | > 1000 nM | > 1000 nM | – | > 1000 nM | –
7 | CCS(=O)(=O)c1ccc(CNC(=O)[C@H](CCC(N)=O)NC(=O)[C@@H]2CC[C@@H]3CCN(C(=O)CCCCc4cn([C@@H](C(=O)N5C[C@H](O)C[C@H]5C(=O)N[C@H](C)c5ccc(-c6scnc6C)cc5)C5CCOCC5)nn4)C[C@H](NC(=O)c4cc5cc(C(=O)P(=O)(O)O)ccc5[nH]4)C(=O)N32)cc1 [Compound 24, (2-(((5S,8S,10aR)-8-(((S)-5-amino-1-((4-(ethylsulfonyl)benzyl)amino)-1,5-dioxopentan-2-yl)carbamoyl)-3-(5-(1-((R)-2-((2S,4R)-4-hydroxy-2-(((R)-1-(4-(4-methylthiazol-5-yl)phenyl)ethyl)carbamoyl)pyrrolidin-1-yl)-2-oxo-1-(tetrahydro-2H-pyran-4-yl)ethyl)-1H-1,2,3-triazol-4-yl)pentanoyl)-6-oxodecahydropyrrolo[1,2-a][1,5]diazocin-5-yl)carbamoyl)-1H-indole-5-carbonyl)phosphonic acid] | – | – | – | < 10 nM | > 80% | < 10 nM | < 10 nM
